Assay results published in patent US20230023092A1, “TREATMENT OF DEPRESSION AND OTHER VARIOUS DISORDERS WITH PSILOCYBIN” (COMPASS […], priority 2019, published 2023).

Tested on: healthy subjects
Assay: Life Changes Inventory (LCI)
Assay type: in vivo, human
Text: In some embodiments, the Life Changes Inventory (LCI) questionnaire is utilized to evaluate the safety and/or efficacy of psilocybin. The LCI is designed as a questionnaire to investigate those variables present in the day-to-day experience of adults that might relate either to stability or decline of intellectual ability.
The following list of outcome measures are non-exhaustive. • a. The short-term change from Baseline (Day −1 [Visit 2]) to Day 7 (Visit 5) in cognitive measures of attention, spatial and working memory and executive function was measured by a composite score of the CANTAB Panel (Spatial Working Memory [SWM], Rapid Visual Information Processing [RVP], Paired Associates Learning [PAL]). • b. The short-term change from Baseline (Day −1 [Visit 2]) to Day 7 (Visit 5) in Social Cognition Panel scales (Pictorial Empathy Test [PET], Reading the Mind in the Eyes Test [RMET], Toronto Empathy Questionnaire [TEQ], Social Value Orientation [SVO], Scale of Social Responsibility [SSR]). • c. The change from Baseline (Day −1 [Visit 2]) to Day 28 (Visit 6) in cognitive measures of attention, spatial and working memory and executive function as measured by a composite score of the CANTAB Panel (SWM, RVP, PAL). • d. The long-term change from Baseline (Day −1 [Visit 2]) to Day 84 (Visit 7) in Social Cognition Panel scales (PET, RMET, TEQ, SVO, SSR). • e. Dose-related differences between cognitive effects of psilocybin at Baseline (Day −1 [Visit 2]), Day 7 (Visit 5) and Day 28 (Visit 6), as measured by a composite score of the CANTAB Panel (SWM, RVP, PAL). • f. Dose-related differences between psychological effects of psilocybin at Baseline (Day −1 [Visit 2]), Day 7 (Visit 5) and Day 84 (Visit 7), as measured by Social Cognition Panel scales (PET, RMET, TEQ, SVO, SSR). • g. Differences in cognitive effects of psilocybin between psilocybin-naïve and experienced subjects at Baseline (Day −1 [Visit 2]), Day 7 (Visit 5) and Day 28 (Visit 6), as measured by a composite score of the CANTAB Panel (SWM, RVP, PAL). • h. Differences in Positive and Negative Affect Schedule (PANAS) after study drug administration on Day 0 (Visit 3). • i. Differences between psilocybin and placebo in the Emotion Recognition Test (ERT), Intra-Extra Dimensional Set Shift (IED), One Touch Stockings (OTS), Verbal Fluency and Digit Span Forward at Day 7 (Visit 5). • j. A composite score of the CANTAB Panel, including the following tests: • i. Spatial Working Memory (SWM) (performed at Visit 2, Visit 5, and Visit 6). • ii. Rapid Visual Information Processing (RVP) (performed at Visit 2, Visit 5, and Visit 6). • iii. Paired Associates Learning (PAL) (performed at Visit 2, Visit 5, and Visit 6). • k. Cognitive Flexibility Panel • i. Emotion Recognition Task (ERT) (performed at Visit 5). • ii. Intra-Extra Dimensional Set Shift (IED) (performed at Visit 5). • iii. One Touch Stockings (OTS) (performed at Visit 5). • iv. Verbal Fluency (performed at Visit 5). • v. Digit Span Forward (performed at Visit 5). • l. Five Dimension Altered States of Consciousness questionnaire (5D-ASC) (performed at Visit 3). • m. PANAS (performed at Visit 2 and Visit 3). • n. NEO-Five Factor Inventory (NEO-FFI) (performed at Visit 2, Visit 5, and Visit 7). • o. Symptom Checklist-90 item (SCL-90) (performed at Visit 2, Visit 5, and Visit 7). • p. Life Changes Inventory (LCI): The LCI measures changes in attitudes and values after near-death experiences often used to evaluate personal transformation following spiritually oriented experiences and practices. (performed at Visit 5 and Visit 7). • q. Social Cognition Panel scales • i. Pictorial Empathy Test (PET) (performed at Visit 2, Visit 5, and Visit 7). • ii. Reading the Mind in the Eyes Test (RMET) (performed at Visit 2, Visit 5, and Visit 7). • iii. Social Value Orientation (SVO) (performed at Visit 2, Visit 5, and Visit 7). • iv. Toronto Empathy Questionnaire (TEQ) (performed at Visit 2, Visit 5, and Visit 7). • v. […]

Structure (SMILES): CN(C)CCc1c[nH]c2cccc(OP(=O)(O)O)c12 [Psilocybin, psilocybin]
- LCI appreciation for life, LS mean difference Psilocybin 10 mg-Placebo (Day 7): 0.6
- LCI appreciation for life, LS mean difference Psilocybin 25 mg-Placebo (Day 7): 0.5
- LCI appreciation for life, LS mean difference Psilocybin (25 mg-10 mg) (Day 7): −0.2
- LCI appreciation of death, LS mean difference Psilocybin 10 mg-Placebo (Day 7): 0.1
- LCI appreciation of death, LS mean difference Psilocybin 25 mg-Placebo (Day 7): 0.1
- LCI appreciation of death, LS mean difference Psilocybin (25 mg-10 mg) (Day 7): −0.0
- LCI concern for others, LS mean difference Psilocybin 10 mg-Placebo (Day 7): 0.4
- LCI concern for others, LS mean difference Psilocybin 25 mg-Placebo (Day 7): 0.4
- LCI concern for others, LS mean difference Psilocybin (25 mg-10 mg) (Day 7): 0.0
- LCI concern for worldly achievement, LS mean difference Psilocybin 10 mg-Placebo (Day 7): −0.2
- LCI concern for worldly achievement, LS mean difference Psilocybin 25 mg-Placebo (Day 7): −0.1
- LCI concern for worldly achievement, LS mean difference Psilocybin (25 mg-10 mg) (Day 7): 0.1
- LCI concern social, LS mean difference Psilocybin 10 mg-Placebo (Day 7): 0.1
- LCI concern social, LS mean difference Psilocybin 25 mg-Placebo (Day 7): 0.2
- LCI concern social, LS mean difference Psilocybin (25 mg-10 mg) (Day 7): 0.1
- LCI quest for meaning, LS mean difference Psilocybin 10 mg-Placebo (Day 7): 0.4
- LCI quest for meaning, LS mean difference Psilocybin 25 mg-Placebo (Day 7): 0.4
- LCI quest for meaning, LS mean difference Psilocybin (25 mg-10 mg) (Day 7): 0.0
- LCI religiousness, LS mean difference Psilocybin 10 mg-Placebo (Day 7): −0.1
- LCI religiousness, LS mean difference Psilocybin 25 mg-Placebo (Day 7): 0.0
- LCI religiousness, LS mean difference Psilocybin (25 mg-10 mg) (Day 7): 0.1
- LCI self-acceptance, LS mean difference Psilocybin 10 mg-Placebo (Day 7): 0.7
- LCI self-acceptance, LS mean difference Psilocybin 25 mg-Placebo (Day 7): 0.5
- LCI self-acceptance, LS mean difference Psilocybin (25 mg-10 mg) (Day 7): −0.1
- LCI spirituality, LS mean difference Psilocybin 10 mg-Placebo (Day 7): 0.3
- LCI spirituality, LS mean difference Psilocybin 25 mg-Placebo (Day 7): 0.2
- LCI spirituality, LS mean difference Psilocybin (25 mg-10 mg) (Day 7): −0.1
- LCI-absolute change, LS mean difference Psilocybin 10 mg-Placebo (Day 7): 0.4
- LCI-absolute change, LS mean difference Psilocybin 25 mg-Placebo (Day 7): 0.3
- LCI-absolute change, LS mean difference Psilocybin (25 mg-10 mg) (Day 7): −0.1
- LCI appreciation for life, LS mean difference Psilocybin 10 mg-Placebo (Day 84): 0.6
- LCI appreciation for life, LS mean difference Psilocybin 25 mg-Placebo (Day 84): 0.5
- LCI appreciation for life, LS mean difference Psilocybin (25 mg-10 mg) (Day 84): −0.1
- LCI appreciation of death, LS mean difference Psilocybin 10 mg-Placebo (Day 84): 0.2
- LCI appreciation of death, LS mean difference Psilocybin 25 mg-Placebo (Day 84): 0.2
- LCI appreciation of death, LS mean difference Psilocybin (25 mg-10 mg) (Day 84): 0.0
- LCI concern for others, LS mean difference Psilocybin 10 mg-Placebo (Day 84): 0.4
- LCI concern for others, LS mean difference Psilocybin 25 mg-Placebo (Day 84): 0.5
- LCI concern for others, LS mean difference Psilocybin (25 mg-10 mg) (Day 84): 0.1
- LCI concern for worldly achievement, LS mean difference Psilocybin 10 mg-Placebo (Day 84): −0.2
- LCI concern for worldly achievement, LS mean difference Psilocybin 25 mg-Placebo (Day 84): −0.1
- LCI concern for worldly achievement, LS mean difference Psilocybin (25 mg-10 mg) (Day 84): 0.1
- LCI concern social, LS mean difference Psilocybin 10 mg-Placebo (Day 84): 0.1
- LCI concern social, LS mean difference Psilocybin 25 mg-Placebo (Day 84): 0.1
- LCI concern social, LS mean difference Psilocybin (25 mg-10 mg) (Day 84): 0.0
- LCI quest for meaning, LS mean difference Psilocybin 10 mg-Placebo (Day 84): 0.4
- LCI quest for meaning, LS mean difference Psilocybin 25 mg-Placebo (Day 84): 0.4
- LCI quest for meaning, LS mean difference Psilocybin (25 mg-10 mg) (Day 84): −0.0
- LCI religiousness, LS mean difference Psilocybin 10 mg-Placebo (Day 84): −0.0
- LCI religiousness, LS mean difference Psilocybin 25 mg-Placebo (Day 84): 0.0
- LCI religiousness, LS mean difference Psilocybin (25 mg-10 mg) (Day 84): 0.1
- LCI self-acceptance, LS mean difference Psilocybin 10 mg-Placebo (Day 84): 0.5
- LCI self-acceptance, LS mean difference Psilocybin 25 mg-Placebo (Day 84): 0.5
- LCI self-acceptance, LS mean difference Psilocybin (25 mg-10 mg) (Day 84): 0.0
- LCI spirituality, LS mean difference Psilocybin 10 mg-Placebo (Day 84): 0.4
- LCI spirituality, LS mean difference Psilocybin 25 mg-Placebo (Day 84): 0.4
- LCI spirituality, LS mean difference Psilocybin (25 mg-10 mg) (Day 84): −0.0
- LCI-absolute change, LS mean difference Psilocybin 10 mg-Placebo (Day 84): 0.4
- LCI-absolute change, LS mean difference Psilocybin 25 mg-Placebo (Day 84): 0.4
- LCI-absolute change, LS mean difference Psilocybin (25 mg-10 mg) (Day 84): −0.0
- LCI appreciation for life, LS mean (Psilocybin 10 mg, Day 7): 0.8
- LCI appreciation of death, LS mean (Psilocybin 10 mg, Day 7): 0.2
- LCI concern for others, LS mean (Psilocybin 10 mg, Day 7): 0.5
- LCI concern for worldly achievement, LS mean (Psilocybin 10 mg, Day 7): −0.2
- LCI concern social, LS mean (Psilocybin 10 mg, Day 7): 0.2
- LCI quest for meaning, LS mean (Psilocybin 10 mg, Day 7): 0.5
- LCI religiousness, LS mean (Psilocybin 10 mg, Day 7): −0.0
- LCI self-acceptance, LS mean (Psilocybin 10 mg, Day 7): 0.8
- LCI spirituality, LS mean (Psilocybin 10 mg, Day 7): 0.5
- LCI-absolute change, LS mean (Psilocybin 10 mg, Day 7): 0.5
- LCI appreciation for life, LS mean (Psilocybin 10 mg, Day 84): 0.8
- LCI appreciation of death, LS mean (Psilocybin 10 mg, Day 84): 0.2
- LCI concern for others, LS mean (Psilocybin 10 mg, Day 84): 0.5
- LCI concern for worldly achievement, LS mean (Psilocybin 10 mg, Day 84): −0.2
- LCI concern social, LS mean (Psilocybin 10 mg, Day 84): 0.2
- LCI quest for meaning, LS mean (Psilocybin 10 mg, Day 84): 0.5
- LCI religiousness, LS mean (Psilocybin 10 mg, Day 84): −0.0
- LCI self-acceptance, LS mean (Psilocybin 10 mg, Day 84): 0.6
- LCI spirituality, LS mean (Psilocybin 10 mg, Day 84): 0.5
- LCI-absolute change, LS mean (Psilocybin 10 mg, Day 84): 0.5
- LCI appreciation for life, LS mean (Psilocybin 25 mg, Day 7): 0.6
- LCI appreciation of death, LS mean (Psilocybin 25 mg, Day 7): 0.1
- LCI concern for others, LS mean (Psilocybin 25 mg, Day 7): 0.6
- LCI concern for worldly achievement, LS mean (Psilocybin 25 mg, Day 7): −0.2
- LCI concern social, LS mean (Psilocybin 25 mg, Day 7): 0.2
- LCI quest for meaning, LS mean (Psilocybin 25 mg, Day 7): 0.5
- LCI religiousness, LS mean (Psilocybin 25 mg, Day 7): 0.0
- LCI self-acceptance, LS mean (Psilocybin 25 mg, Day 7): 0.6
- LCI spirituality, LS mean (Psilocybin 25 mg, Day 7): 0.4
- LCI-absolute change, LS mean (Psilocybin 25 mg, Day 7): 0.4
- LCI appreciation for life, LS mean (Psilocybin 25 mg, Day 84): 0.7
- LCI appreciation of death, LS mean (Psilocybin 25 mg, Day 84): 0.3
- LCI concern for others, LS mean (Psilocybin 25 mg, Day 84): 0.7
- LCI concern for worldly achievement, LS mean (Psilocybin 25 mg, Day 84): −0.1
- LCI concern social, LS mean (Psilocybin 25 mg, Day 84): 0.2
- LCI quest for meaning, LS mean (Psilocybin 25 mg, Day 84): 0.5
- LCI religiousness, LS mean (Psilocybin 25 mg, Day 84): 0.0
- LCI self-acceptance, LS mean (Psilocybin 25 mg, Day 84): 0.6
- LCI spirituality, LS mean (Psilocybin 25 mg, Day 84): 0.5
- LCI-absolute change, LS mean (Psilocybin 25 mg, Day 84): 0.5
